Measured values: US20230041563A1, “N-(1,3,4-OXADIAZOL-2-YL)ARYLCARBOXAMIDES OR SALTS THEREOF, PREPARATION METHODS, HERBICIDAL COMPOSITIONS AND USES THEREOF” (priority 2018, published 2023)

Columns and labels:
Abutilon theophrasti = test: Weeding effect in post-emergence stage (greenhouse pot spray); type: in vivo; conditions: for Abutilon theophrasti (activity level): Table 3, dose 60 g a.i./ha
Method in brief: (§1)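 Fresh-weight control rate was assessed 3 weeks after post-emergence spray-tower application at doses of 500–15 g a.i./ha, triplicate. Weeds were treated at the 2–3 leaf stage, 2 weeks post-sowing, using acetone solutions with Tween 80 plus 1.5 L/ha methyl oleate emulsifiable concentrate.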

Digitaria sanguinalis = test: as above; type: in vivo; conditions: for Digitaria sanguinahs (activity level): Table 3, dose 60 g a.i./ha
Method in brief: as §1

Echinochloa crusgalli = test: as above; type: in vivo
Method in brief: as §1

Setaria viridis = test: as above; type: in vivo; conditions: Table 3, dose 60 g a.i./ha
Method in brief: as §1

Amaranthus retroflexus = test: as above; type: in vivo
Method in brief: as §1

Stellaria media = test: as above; type: in vivo
Method in brief: as §1

[1] = test system: Indica rice (Huanghuazhan); test: Safety test of control experiments on rice; type: in vivo; conditions: Dose 250 g a.i./ha
Excerpt: (§2) The activity level criteria for plant damage (i.e., growth control rate) are as follows: Comparative Experiments: [table]

[2] = test system: Japonica rice (Huaidao No. 5); test: Safety test of control experiments on rice; type: in vivo; conditions: Dose 250 g a.i./ha
Excerpt: as §2

[3] = test system: rice and Echinochloa crusgali; test: Herbicide selection index between rice and Echinochloa crusgali; type: in vivo; conditions: average dose causing 10% phytotoxicity to rice divided by average dose causing 90% control efficiency to Echinochloa crusgali
Echinochloa crusgali = test: Transplanted rice safety evaluation and weed control effect evaluation in rice field; type: in vivo
Excerpt: (§3) Transplanted rice safety evaluation and weed control effect evaluation in rice field:
(§4) Rice field soil was loaded into a 1/1,000,000 ha pot. The seeds of echinochloa crusgali, scirpus juncoides, Bidens tripartita, Sagittaria trifolia, Monochoria vaginalis and Leptochloa chinensis were sowed and gently covered with soil, then left to stand still in greenhouse in the state of 0.5-1 cm of water storage. The tuber of Sagittaria trifolia was planted in the next day or 2 days later. It was kept at 3-4 cm of water storage thereafter. The weeds were treated by dripping the WP or SC water diluents prepared according to the common preparation method of the compounds of the present invention with pipette homogeneously to achieve specified effective amount when echinochloa crusgali, scirpus juncoides, Bidens tripartita, Monochoria vaginalis and Leptochloa chinensis reached 0.5 leaf stage and Sagittaria trifolia reached the time point of primary leaf stage.
(§5) The fertility condition of echinochloa crusgali, scirpus juncoides, Bidens tripartita, Leptochloa chinensis, Sagittaria trifolia and Monochoria vaginalis 14 days after the treatment of the compound of the invention and the fertility condition of rice 21 days after the treatment of the compound of the invention respectively with the naked eye. Evaluate the weed control effect with 0-5 activity standard level. Many compounds show excellent activity and selectivity.

Monochoria vaginalis = test: as above; type: in vivo
Excerpt: as §3, §4, §5

Scirpus juncoides = test: as above; type: in vivo; conditions: Table 7, dose 125 g a.i./ha, 14 days after treatment
Excerpt: as §3, §4, §5

Rice = test: as above; type: in vivo, rice (japonica rice/Indica rice)
Experimental: as §3
In addition, the rice field soil that loaded into the 1/1,000,000 ha pot was leveled to keep water storage at 3-4 cm depth. The 3 leaf stage rice (japonica rice/Indica rice) was transplanted at 3 cm of transplanting depth the next day. The compound of the present invention was treated by the same way after 5 days of transplantation.
as §5

Leptochloa chinensis = test: as above; type: in vivo
Excerpt: as §3, §4, §5

Sagittaria trifolia = test: as above; type: in vivo
Excerpt: as §3, §4, §5

weeds = test: Actual control effects and combined effects of mixtures of active ingredients (i) and (ii), stem-leaf treatment, Gowing method; type: in vivo; conditions: Cyperus difformis, 20 days
[4] = Table 7, dose 125 g a.i./ha, 14 days after treatment
[5] = Table 7, dose 125 g a.i./ha, 21 days after treatment

Row | SMILES | Abutilion theophrasti (activity level) (Abutilon theophrasti; Table 2, dose 125 g a.i./ha) | Abutilon theophrasti (activity level) (Abutilon theophrasti) | Digitaria sanguinalis (activity level) (Digitaria sanguinalis; Table 2, dose 125 g a.i./ha) | Digitaria sanguinahs (activity level) (Digitaria sanguinalis) | Echinochloa crusgah (activity level) (Echinochloa crusgalli; Table 2, dose 125 g a.i./ha) | Setaria viridis (activity level) (Setaria viridis) | Amaranthus retroflexus (activity level) (Amaranthus retroflexus; Table 2, dose 125 g a.i./ha) | Stellaria media (activity level) (Stellaria media; Table 2, dose 125 g a.i./ha) | Indica rice (Huanghuazhan) (plant damage level) [1] | Japonica rice (Huaidao No. 5) (plant damage level) [2] | Selection index between rice and Echinochloa crusgali [3] | Echinochloa crusgali (activity level) (Echinochloa crusgali; [4]) | Monochoria vaginalis (activity level) (Monochoria vaginalis; [4]) | Scirpus juncoides (activity level) (Scirpus juncoides) | Rice (safety level) (Rice; [5]) | other results
1 | CC[S+]([O-])c1c(C(F)(F)F)ccc(C(=O)Nc2nnc(C)o2)c1F (centres unmarked) [Compound 1-5] | 5 (Level 5: growth control rate is above 85%) | 5 (Level 5: growth control rate is above 85%) | 5 (Level 5: growth control rate is above 85%) | 5 (Level 5: growth control rate is above 85%) | 5 (Level 5: growth control rate is above 85%) | 5 (Level 5: growth control rate is above 85%) | 5 (Level 5: growth control rate is above 85%) | 5 (Level 5: growth control rate is above 85%) | 0 (Level 0: growth control rate is less than 5%) | 0 (Level 0: growth control rate is less than 5%) | >5 | 5 (Level 5: growth control rate is above 85%) | 5 (Level 5: growth control rate is above 85%) | 5 (Level 5: growth control rate is above 85%) | 0 (Level 0: growth control rate is less than 5%) | Abutilion theophrasti (activity level) (Abutilon theophrasti; Table 2, dose 60 g a.i./ha): 5 (Level 5: growth control rate is above 85%); Digitaria sanguinalis (activity level) (Digitaria sanguinalis; Table 2, dose 60 g a.i./ha): 5 (Level 5: growth control rate is above 85%); Echinochloa crusgah (activity level) (Echinochloa crusgalli; Table 2, dose 60 g a.i./ha): 5 (Level 5: growth control rate is above 85%); Echinochloa crusgali (activity level) (Echinochloa crusgalli; Table 3, dose 60 g a.i./ha): 5 (Level 5: growth control rate is above 85%); Amaranthus retroflexus (activity level) (Amaranthus retroflexus; Table 2, dose 60 g a.i./ha): 5 (Level 5: growth control rate is above 85%); Stellaria media (activity level) (Stellaria media; Table 2, dose 60 g a.i./ha): 5 (Level 5: growth control rate is above 85%)
2 | CCS(=O)(=O)c1c(C(F)(F)F)ccc(C(=O)Nc2nnc(C)o2)c1F [Compound 1-6] | 5 (Level 5: growth control rate is above 85%) | – | 5 (Level 5: growth control rate is above 85%) | – | 5 (Level 5: growth control rate is above 85%) | – | 5 (Level 5: growth control rate is above 85%) | 5 (Level 5: growth control rate is above 85%) | 0 (Level 0: growth control rate is less than 5%) | 0 (Level 0: growth control rate is less than 5%) | >5 | 5 (Level 5: growth control rate is above 85%) | 5 (Level 5: growth control rate is above 85%) | 5 (Level 5: growth control rate is above 85%) | 0 (Level 0: growth control rate is less than 5%) | Abutilion theophrasti (activity level) (Abutilon theophrasti; Table 2, dose 250 g a.i./ha): 5 (Level 5: growth control rate is above 85%); Digitaria sanguinalis (activity level) (Digitaria sanguinalis; Table 2, dose 250 g a.i./ha): 5 (Level 5: growth control rate is above 85%); Echinochloa crusgah (activity level) (Echinochloa crusgalli; Table 2, dose 250 g a.i./ha): 5 (Level 5: growth control rate is above 85%); Amaranthus retroflexus (activity level) (Amaranthus retroflexus; Table 2, dose 250 g a.i./ha): 5 (Level 5: growth control rate is above 85%); Stellaria media (activity level) (Stellaria media; Table 2, dose 250 g a.i./ha): 5 (Level 5: growth control rate is above 85%)
3 | CCCC[S+]([O-])c1c(C(F)(F)F)ccc(C(=O)Nc2nnc(C)o2)c1F (racemic) [Compound 1-14] | 5 (Level 5: growth control rate is above 85%) | 5 (Level 5: growth control rate is above 85%) | 5 (Level 5: growth control rate is above 85%) | 5 (Level 5: growth control rate is above 85%) | 5 (Level 5: growth control rate is above 85%) | 5 (Level 5: growth control rate is above 85%) | 5 (Level 5: growth control rate is above 85%) | 5 (Level 5: growth control rate is above 85%) | 0 (Level 0: growth control rate is less than 5%) | 0 (Level 0: growth control rate is less than 5%) | >5 | 5 (Level 5: growth control rate is above 85%) | 5 (Level 5: growth control rate is above 85%) | 5 (Level 5: growth control rate is above 85%) | 0 (Level 0: growth control rate is less than 5%) | –
4 | COc1cnc(OC)n2nc(NS(=O)(=O)c3c(OCC(F)F)cccc3C(F)(F)F)nc12 [Penoxsulam, reference compound] | – | – | – | – | – | – | – | – | – | – | – | – | – | – | – | Echinochloa crusgali (activity level) (Echinochloa crusgali; Table 8, 30 g a.i./ha): 0 (Level 0: growth control rate is less than 5%); Leptochloa chinensis (activity level) (Leptochloa chinensis; Table 8, 30 g a.i./ha): 1 (Level 1: growth control rate is greater than or equal to 5% and less than 20%); Monochoria vaginalis (activity level) (Monochoria vaginalis; Table 8, 30 g a.i./ha): 1 (Level 1: growth control rate is greater than or equal to 5% and less than 20%); Sagittaria trifolia (activity level) (Sagittaria trifolia; Table 8, 30 g a.i./ha): 0 (Level 0: growth control rate is less than 5%); pest or weed control at 15 g/ha (weeds; 480 h, (ii) 1 g a.i./mu, stem-leaf treatment, read-out: Control effect of (ii) alone at corresponding dose): 66.4%; pest or weed control at 27 g/ha (weeds; 480 h, (ii) 1.8 g a.i./mu, read-out: Control effect of (ii) alone at corresponding dose): 80.2%; Control effect of (ii) alone at corresponding dose (weeds; (ii) 1 g a.i./mu): 66.4%
5 | Cc1nnc(NC(=O)c2ccc(C(F)(F)F)c([S@@+]([O-])CC(C)C)c2F)o1 [1-20 (R-configuration)] | – | – | – | – | – | – | – | – | – | – | – | – | – | – | – | Echinochloa crusgali (activity level) (Echinochloa crusgali; Table 8, dose 60 g a.i./ha): 5 (Level 5: growth control rate is above 85%); Leptochloa chinensis (activity level) (Leptochloa chinensis; Table 8, dose 60 g a.i./ha): 5 (Level 5: growth control rate is above 85%); Monochoria vaginalis (activity level) (Monochoria vaginalis; Table 8, dose 60 g a.i./ha): 5 (Level 5: growth control rate is above 85%); Sagittaria trifolia (activity level) (Sagittaria trifolia; Table 8, dose 60 g a.i./ha): 5 (Level 5: growth control rate is above 85%); Rice (safety level) (Rice; Table 8, dose 60 g a.i./ha): 0 (Level 0: growth control rate is less than 5%)
6 | COCC[S+]([O-])c1c(C(F)(F)F)ccc(C(=O)Nc2nnc(C)o2)c1F (racemic) [Compound 1-57] | – | – | – | – | – | – | – | – | 0 (Level 0: growth control rate is less than 5%) | 0 (Level 0: growth control rate is less than 5%) | >5 | 5 (Level 5: growth control rate is above 85%) | 5 (Level 5: growth control rate is above 85%) | 5 (Level 5: growth control rate is above 85%) | 0 (Level 0: growth control rate is less than 5%) | Abutilion theophrasti (activity level) (Abutilon theophrasti; Table 2, dose 500 g a.i./ha): 5 (Level 5: growth control rate is above 85%); Digitaria sanguinalis (activity level) (Digitaria sanguinalis; Table 2, dose 500 g a.i./ha): 5 (Level 5: growth control rate is above 85%); Echinochloa crusgah (activity level) (Echinochloa crusgalli; Table 2, dose 500 g a.i./ha): 5 (Level 5: growth control rate is above 85%); Amaranthus retroflexus (activity level) (Amaranthus retroflexus; Table 2, dose 500 g a.i./ha): 5 (Level 5: growth control rate is above 85%); Stellaria media (activity level) (Stellaria media; Table 2, dose 500 g a.i./ha): 5 (Level 5: growth control rate is above 85%)
